Marks after values point to notes of the source that are not given here.
Tested on: male ICR mice on high-fat feed
Assay: Body fat and body weight reduction in mice given high-fat feed
Type: in vivo, mouse
Conditions: extracts 300 mg/kg
Description: As experimental animals, 4-week-old male ICR mice were purchased from Orient Bio and acclimated for a week. Each group consisted of 10 animals. For a normal diet group (G1) and high-fat diet groups (G2 to G6), normal feed (energy ratio (kcal %); protein:carbohydrate:fat=20:70:10) or high-fat feed (energy ratio (kcal %); protein:carbohydrate:fat=20:20:60) purchased from Research Diets, Inc. (New Brunswick, NJ, USA) was provided, respectively. The feed and water were allowed freely. The specific compositions of the normal feed and the high-fat feed are described in Table 6. The test substance was administered orally at regular intervals for 8 weeks by dissolving in physiological saline (G3 to G6). For G1 and G2, physiological saline containing no test substance was administered orally. The experimental animal breeding room was maintained at 12-hour lighting cycles under the condition of 23±3° C., 50 t 10% relative humidity and 10-15 ventilations/hour. The animal experiment was conducted in accordance with the regulations of the Hallym University Institutional Animal Care and Use Committee (Hallym 2018-31). The experimental animals were divided into […]: normal group (G) to which normal feed was given for 6 weeks; control group (G2) to which high-fat feed was given; G3 to which high-fat feed was given and 300 mg/kg of the Gynostemma pentaphyllum tea extract of Example was administered; G4 to which 300 mg/kg of the Gynostemma pentaphyllum tea extract of Comparative Example was administered; G5 to which 300 mg/kg of the Gynostemma pentaphyllum tea extract of Comparative Example 2 was administered; G6 to which 300 mg/kg of the Gynostemma pentaphyllum tea extract of Comparative Example 3 was administered; […] The composition of the test groups is described specifically in Table 7. Initial body weight, final body weight, total body weight gain, feed intake, body fat percentage and feed efficiency ratio (FER) were measured while providing the feed specified in 6-2 to each test group for 8 weeks. Specifically, the body weight was measured using a digital scale once a week at the same time. The feed efficiency ratio (FER) was calculated by the following equation. The result of investigating the initial body weight, final body weight, total body weight gain, feed intake, body fat percentage and feed efficiency ratio for 8 weeks is given in Table 8. Feed efficiency ratio (FER)=body weight gain (g)/feed intake (g) [Equation]

[1] = high-fat feed, 8 weeks oral, orlistat 30 mg/kg

SMILES: CCCCCCCCCCC[C@@H](C[C@@H]1OC(=O)[C@H]1CCCCCC)OC(=O)[C@H](CC(C)C)NC=O [Orlistat, orlistat]
- Initial body weight (baseline, high-fat feed ICR mice, orlistat 30 mg/kg oral): 21.7 ± 0.2 g
- Feed efficiency ratio (FER) (body weight gain (g)/feed intake (g), high-fat feed, 8 weeks oral, orlistat 30 mg/kg): 0.126 ± 0.005
- Body fat percentage (%) [1]: 36.6 ± 0.7 %
- Body weight gain (%) [1]: 70.97* %
- Final body weight [1]: 37.1 ± 0.6 g
- Total body weight gain [1]: 15.4 ± 0.2 g
- Total feed intake [1]: 122.4 ± 0.3 g
